From patent US12600728B2, “Interleukin-17 inhibitors” (priority 2020, dated 2026)

Each molecule was assayed against biotinylated human IL-17A / AF647-labeled human IL-17RA (Homo sapiens, UniProt Q16552) (assay: Human IL-17A×IL-17RA TR-FRET assay). Conditions: IL17AA FRET/ IL17Rawt IC50, TR-FRET, 5 nM IL-17A, 30 nM IL-17RA.
Format: binding
Procedure: Human IL-17A×IL-17RA TR-FRET Assay
Each compound concentration is tested in duplicate.
The final total assay volume is 10 μL.
Each plate contains test compounds in columns 1-22 and controls in columns 23 and 24. The neutral control (NC) contains all the assay components, but DMSO instead of test compound. […] The fluorescence values for emission at 615 nm and 665 nm are loaded to the evaluation software Helios.
From the activity data at each compound concentration, the IC50 values are obtained using the 4-parameter logistic function (“Hill-slope model”) of Helios.

biotinylated human IL-17A / AF647-labeled human IL-17RA, sequence (Q16552 24-155): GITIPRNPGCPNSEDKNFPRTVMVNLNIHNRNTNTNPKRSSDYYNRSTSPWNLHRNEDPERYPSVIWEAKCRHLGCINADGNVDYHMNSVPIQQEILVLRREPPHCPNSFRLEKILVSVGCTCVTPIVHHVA

Row | SMILES | IC50 [nM]
1 | Cc1c(-c2ccc(NC(=O)[C@@H](NC(=O)c3ccnn3C)C3CCC(F)(F)CC3)cc2)cc(Cl)c[n+]1[O-] [Example 177, (S)-5-chloro-3-(4-(2-(4,4-difluorocyclohexyl)-2-(1-methyl-1H-pyrazole-5-carboxamido)acetamido)phenyl)-2-methylpyridine 1-oxide] | 2110
2 | Cc1cc[n+]([O-])cc1-c1ccc(NC(=O)[C@@H](NC(=O)c2ccnn2C)C2CCCCC2)cc1F [Example 168, (S)-3-(4-(2-cyclohexyl-2-(1-methyl-1H-pyrazole-5-carboxamido)acetamido)-2-fluorophenyl)-4-methylpyridine 1-oxide] | 1470
3 | CCn1nccc1C(=O)NC(C(=O)Nc1ccc(-c2c(C(F)(F)F)cc[n+]([O-])c2C)cc1)C1CC2CC2C1 (single isomer, unassigned) [Example 154] | 6300

Same assay, conditions: IL17AA FRET/ IL17Rawt IC50, TR-FRET, biotinylated human IL-17A 5 nM, AF647-labeled human IL-17RA 30 nM

Row | SMILES | IC50 [nM]
4 | Cc1c(-c2ccc(NC(=O)C(NC(=O)c3ccnn3C)C3CC4C(C3)C4(F)F)cc2)c(Cl)cc[n+]1[O-] (single isomer, unassigned) [Example 54b] | 10900
5 | Cc1c[n+]([O-])ccc1-c1ccc(NC(=O)[C@@H](NC(=O)c2ccnn2C)C2CCCCC2)cc1 [Example 111, (S)-4-(4-(2-cyclohexyl-2-(1-methyl-1H-pyrazole-5-carboxamido)acetamido)phenyl)-3-methylpyridine I-oxide] | 4780

Same assay, conditions: TR-FRET, 5 nM IL-17A, 30 nM IL-17RA; read-out: IL17AA FRET/ IL17Rawt IC50

Row | SMILES | IC50 [nM]
6 | Cc1cc[n+]([O-])c(C)c1-c1ccc(NC(=O)C(NC(=O)c2ccnn2C)C2CC(F)CC(F)C2)cc1 (centres unmarked) [Example 222, 3-(4-(2-(3,5-difluorocyclohexyl)-2-(1-methyl-1H-pyrazole-5-carboxamido)acetamido)phenyl)-2,4-dimethylpyridine 1-oxide] | 7290
7 | Cc1cc[n+]([O-])c(C)c1-c1ccc(NC(=O)C(NC(=O)c2ccc3n2CCNC3)C2CCC(C)CC2)cc1 [Example 220, 2,4-dimethyl-3-(4-((S)-2-((1r,4S)-4-methylcyclohexyl)-2-(1,2,3,4-tetrahydropyrrolo[1,2-a]pyrazine-6-carboxamido)acetamido)phenyl)pyridine 1-oxide] | 2310
8 | Cc1c(-c2ccc(NC(=O)C(NC(=O)c3ccc4n3CCNC4)[C@@H]3C[C@@H]4[C@H](C3)C4(F)F)cc2)c(Cl)cc[n+]1[O-] (stereo partly drawn) [Example 211, 4-chloro-3-(4-(2-((1R,3s,5S)-6,6-difluorobicyclo[3.1.0]hexan-3-yl)-2-(1,2,3,4-tetrahydropyrrolo[1,2-a]pyrazine-6-carboxamido)acetamido)phenyl)-2-methylpyridine 1-oxide] | 499
9 | CC(=O)N1CCn2c(ccc2C(=O)N[C@H](C(=O)Nc2ccc(-c3c(C(F)(F)F)cc[n+]([O-])c3C)cc2)C2CCC(F)(F)CC2)C1 [Example 210, (S)-3-(4-(2-(2-acetyl-1,2,3,4-tetrahydropyrrolo[1,2-a]pyrazine-6-carboxamido)-2-(4,4-difluorocyclohexyl)acetamido)phenyl)-2-methyl-4-(trifluoromethyl)pyridine 1-oxide] | 478
10 | COCc1nocc1C(=O)N[C@H](C(=O)Nc1ccc(-c2cc(Cl)c[n+]([O-])c2C)cc1)C1CCC(F)(F)CC1 [Example 176, (S)-5-chloro-3-(4-(2-(4,4-difluorocyclohexyl)-2-(3-(methoxymethyl)isoxazole-4-carboxamido)acetamido)phenyl)-2-methylpyridine 1-oxide] | 1610
11 | Cc1cc[n+]([O-])c(C)c1-c1ccc(NC(=O)[C@@H](NC(=O)c2ccc3n2CCN(C)C3)C2CCC(F)CC2)cc1 (stereo partly drawn) [Example 214, 3-(4-((2S)-2-(4-fluorocyclohexyl)-2-(2-methyl-1,2,3,4-tetrahydropyrrolo[1,2-a]pyrazine-6-carboxamido)acetamido)phenyl)-2,4-dimethylpyridine 1-oxide] | 690
12 | Cc1cc[n+]([O-])c(C)c1-c1ccc(NC(=O)C(NC(=O)c2ccc3n2CCN(C)C3)C(C)c2ccccc2Cl)cc1 (centres unmarked) [Example 212, 3-(4-(3-(2-chlorophenyl)-2-(2-methyl-1,2,3,4-tetrahydropyrrolo[1,2-a]pyrazine-6-carboxamido)butanamido)phenyl)-2,4-dimethylpyridine 1-oxide] | 502
13 | Cc1cc[n+]([O-])c(C)c1-c1ccc(NC(=O)[C@@H](NC(=O)c2ccc3n2CCNC3)C(C)c2ccccc2Cl)cc1 (stereo partly drawn) [Example 216, 3-(4-((2S)-3-(2-chlorophenyl)-2-(1,2,3,4-tetrahydropyrrolo[1,2-a]pyrazine-6-carboxamido)butanamido)phenyl)-2,4-dimethylpyridine 1-oxide] | 796
14 | Cc1cc[n+]([O-])c(C)c1-c1ccc(NC(=O)[C@@H](NC(=O)c2ccc3n2CCN(C)C3)C2CCCC2)cc1 [Example 153, (S)-3-(4-(2-cyclopentyl-2-(2-methyl-1,2,3,4-tetrahydropyrrolo[1,2-a]pyrazine-6-carboxamido)acetamido)phenyl)-2,4-dimethylpyridine 1-oxide] | 798
15 | Cc1c(-c2ccc(NC(=O)[C@@H](NC(=O)c3ccc4n3CCN(C)C4)[C@H]3CCCC(F)(F)C3)cc2)c(C(F)(F)F)cc[n+]1[O-] [Example 166, 3-(4-((S)-2-((S)-3,3-difluorocyclohexyl)-2-(2-methyl-1,2,3,4-tetrahydropyrrolo[1,2-a]pyrazine-6-carboxamido)acetamido)phenyl)-2-methyl-4-(trifluoromethyl)pyridine 1-oxide] | 358

Same assay, conditions: TR-FRET, 5 nM IL-17A, 30 nM IL-17RA; reference examples (pyridines); read-out: IL17AA FRET/ IL17RAwt IC50

Row | SMILES | IC50 [nM]
16 | CCc1nocc1C(=O)N[C@H](C(=O)Nc1ccc(-c2c(C)ccnc2C)cc1)[C@H]1CC[C@H](C(F)(F)F)CC1 [compound 142, N-((S)-2-((4-(2,4-dimethylpyridin-3-yl)phenyl)amino)-2-oxo-1-((1r,4S)-4-(trifluoromethyl)cyclohexyl)ethyl)-3-ethylisoxazole-4-carboxamide, reference compound] | 4380
17 | Cc1nocc1C(=O)N[C@H](C(=O)Nc1ccc(-c2c(C(F)(F)F)ccnc2C)cc1)[C@H]1CCCC(F)(F)C1 [compound 143, N-((S)-1-((S)-3,3-difluorocyclohexyl)-2-((4-(2-methyl-4-(trifluoromethyl)pyridin-3-yl)phenyl)amino)-2-oxoethyl)-3-methylisoxazole-4-carboxamide, reference compound] | 851
18 | CCc1nocc1C(=O)N[C@H](C(=O)Nc1ccc(-c2c(Cl)ccnc2C)cc1)[C@H]1CCCC(F)(F)C1 [compound 140, N-((S)-2-((4-(4-chloro-2-methylpyridin-3-yl)phenyl)amino)-1-((S)-3,3-difluorocyclohexyl)-2-oxoethyl)-3-ethylisoxazole-4-carboxamide, reference compound] | 1220

Same assay, conditions: TR-FRET, biotinylated human IL-17A 5 nM, AF647-labeled human IL-17RA 30 nM; read-out: IL17AA FRET/ IL17Rawt IC50

Row | SMILES | IC50 [nM]
19 | Cc1cc[n+]([O-])c(C)c1-c1ccc(NC(=O)[C@@H](NC(=O)c2ccc3n2CCN(C2COC2)C3)[C@H]2CC[C@H](C(F)(F)F)CC2)cc1 [Example 132, 2,4-dimethyl-3-(4-((S)-2-(2-(oxetan-3-yl)-1,2,3,4-tetrahydropyrrolo[1,2-a]pyrazine-6-carboxamido)-2-((1r,4S)-4-(trifluoromethyl)cyclohexyl)acetamido)phenyl)pyridine 1-oxide] | 866
20 | COCCN1CCn2c(ccc2C(=O)N[C@H](C(=O)Nc2ccc(-c3c(C)cc[n+]([O-])c3C)cc2)C2CCCCC2)C1 [Example 135, (S)-3-(4-(2-cyclohexyl-2-(2-(2-methoxyethyl)-1,2,3,4-tetrahydropyrrolo[1,2-a]pyrazine-6-carboxamido)acetamido)phenyl)-2,4-dimethylpyridine 1-oxide] | 451
21 | Cc1c(-c2ccc(NC(=O)[C@@H](NC(=O)c3ccnn3C)C3CCCCC3)c(Cl)c2)c(Cl)cc[n+]1[O-] [Example 85, (S)-4-chloro-3-(3-chloro-4-(2-cyclohexyl-2-(1-methyl-1H-pyrazole-5-carboxamido)acetamido)phenyl)-2-methylpyridine 1-oxide] | 20900
22 | Cc1cc[n+]([O-])c(C)c1-c1ccc(NC(=O)[C@@H](NC(=O)c2conc2CN(C)C)C2CCCCC2)cc1 [Example 80, (S)-3-(4-(2-cyclohexyl-2-(3-((dimethylamino)methyl)isoxazole-4-carboxamido)acetamido)phenyl)-2,4-dimethylpyridine 1-oxide] | 4450
23 | Cc1c(-c2ccc(NC(=O)[C@@H](NC(=O)c3ccc4n3CCN(C)C4)C3CCC(F)CC3)cc2)c(Cl)cc[n+]1[O-] (mixture of isomers) [Example 129, 4-chloro-3-(4-((2S)-2-(4-fluorocyclohexyl)-2-(2-methyl-1,2,3,4-tetrahydropyrrolo[1,2-a]pyrazine-6-carboxamido)acetamido)phenyl)-2-methylpyridine 1-oxide] | 382
24 | Cc1cc[n+]([O-])c(C)c1-c1ccc(NC(=O)[C@@H](NC(=O)c2ccc3n2CCN(C2CC2)C3)C2CCCCC2)cc1 [Example 131, (S)-3-(4-(2-cyclohexyl-2-(2-cyclopropyl-1,2,3,4-tetrahydropyrrolo[1,2-a]pyrazine-6-carboxamido)acetamido)phenyl)-2,4-dimethylpyridine 1-oxide] | 102
25 | Cc1c[n+]([O-])cc(C)c1-c1ccc(NC(=O)[C@@H](NC(=O)c2ccnn2C2CC2)C2CCCCC2)cc1 [Example 98, (S)-4-(4-(2-cyclohexyl-2-(1-cyclopropyl-1H-pyrazole-5-carboxamido)acetamido)phenyl)-3,5-dimethylpyridine 1-oxide] | 1400
26 | CCn1nccc1C(=O)N[C@@H](C(=O)Nc1ccc(-c2c(Cl)cc[n+]([O-])c2C)cc1)C1CCC(F)(F)CC1 (single isomer, unassigned) [Example 13b] | 30400
